Where two headings read alike, the source gives them in different places.
Assays:
Candida albicans = experiment: MIC against Candida albicans (broth tube dilution); type: cell-based; details: Table V, strain 5314, read-out: Minimum Inhibitory Concentration
Enterobacter cloacae = experiment: MIC aerobic screen, H-59 synthetic agar; details: read-out: Minimum Inhibitory Concentration
[1] = test system: Peptostreptococcus anaerobius; experiment: MIC anaerobic screen; type: cell-based; details: Table IV, strain 11,263, read-out: Minimum Inhibitory Concentration
Salmonella typhimurium [2] = experiment: MIC aerobic screen, H-59 synthetic agar; details: Salmonella enterica, read-out: Minimum Inhibitory Concentration
Streptococcus faecalis [3] = experiment: MIC aerobic screen, BA-2 agar; details: Enterococcus faecalis, strain 9011
Propionibacterium acnes = experiment: MIC anaerobic screen; type: cell-based; details: Cutibacterium acnes, Table IV, strain 4020, read-out: Minimum Inhibitory Concentration
Shigella sonnei = experiment: MIC aerobic screen, BA-2 agar; type: cell-based; details: strain 8449
Klebsiella aerogenes = experiment: MIC aerobic screen, H-59 synthetic agar; details: read-out: Minimum Inhibitory Concentration
Bacteroides fragilis = experiment: MIC anaerobic screen; type: cell-based
Serratia marcescens [4] = experiment: MIC aerobic screen, H-59 synthetic agar
Salmonella typhimurium [5] = experiment: MIC aerobic screen, BA-2 agar
Peptococcus variabilis = experiment: MIC anaerobic screen; type: cell-based; details: Table IV, strain 11,264, read-out: Minimum Inhibitory Concentration
[6] = test system: Acinetobacter calcoaceticus; experiment: MIC aerobic screen, BA-2 agar; details: Acinetobacter calcoaceticus, strain 8333
Klebsiella penumoniae = experiment: MIC aerobic screen, H-59 synthetic agar; details: read-out: Minimum Inhibitory Concentration
Escherichia coli = experiment: MIC aerobic screen, H-59 synthetic agar
Eubacterium lentum = experiment: MIC anaerobic screen; type: cell-based; details: Eggerthella lenta, Table IV, strain 11,261, read-out: Minimum Inhibitory Concentration
Experimental: (§1) The antibiotic is prepared as described above for the aerobic screen.
(§2) All organisms are maintained in a tube of chopped meat broth with glucose supplied by Scott Laboratories in Rhode Island. Two days prior to running the test 0.1 ml of the maintained culture is transferred to a fresh tube of chopped meat broth, and the tube is incubated at 37° C. for 48 hours. After 48 hours incubation each culture is assumed to have grown to 1×10^8 CFU/ml.
(§3) The organisms are stamped onto antibiotic containing agar plates (Mueller Hinton Agar BBL+5% whole sheep blood+0.2% lysed sheep blood) to give an inoculum level of 10^5 CFU.
(§4) After stamping, the plates are placed in an anaerobic gas pack system (BBL) and incubated at 37° C. for 18 hours.

Clostridium histolyticum = experiment: MIC anaerobic screen; type: cell-based; details: Hathewaya histolytica, Table IV, strain 8572, read-out: Minimum Inhibitory Concentration
Experimental: as §1, §2, §3, §4

Clostridium sporogenes = experiment: MIC anaerobic screen; type: cell-based; details: Table IV, strain 2372, read-out: Minimum Inhibitory Concentration
Experimental: as §1, §2, §3, §4

Clostridium septicum = experiment: MIC anaerobic screen; type: cell-based; details: Table IV, strain 1780, read-out: Minimum Inhibitory Concentration
Experimental: as §1, §2, §3, §4

[7] = test system: Fusobacterium necrophorum; experiment: MIC anaerobic screen; type: cell-based; details: Table IV, strain 11,338, read-out: Minimum Inhibitory Concentration
Experimental: as §1, §2, §3, §4

Mycoplasma mycoides = experiment: microbe, parasite or virus in culture; type: cell-based; details: 48 h
Pseudomonas aeruginosa [8] = experiment: MIC aerobic screen, H-59 synthetic agar
E. floccosum = experiment: MIC against dermatophytes; type: cell-based; details: Epidermophyton floccosum; Table VI; strain 9185; 26° C., 48 hours; read-out: Minimum Inhibitory Concentration
Pseudomonas aeruginosa [9] = experiment: MIC aerobic screen, BA-2 agar; details: Pseudomonas aeruginosa
Acholeplasma laidlawii = experiment: MIC against mycoplasmas; type: cell-based; details: Table VIII, 48 hours, 37° C., phenol red color change
Streptococcus faecalis [10] = experiment: MIC aerobic screen, H-59 synthetic agar; details: Enterococcus faecalis, read-out: Minimum Inhibitory Concentration
T. rubrum = experiment: MIC against dermatophytes; type: cell-based; details: Trichophyton rubrum; Table VI; strain 9199; 26° C., 48 hours; read-out: Minimum Inhibitory Concentration
Serratia marcescens [11] = experiment: MIC aerobic screen, BA-2 agar; details: Serratia marcescens
[12] = read-out: Minimum Inhibitory Concentration, Table I, BA-2 agar
[13] = read-out: Minimum Inhibitory Concentration, Table II, additional tests

CC1(O)CC(C(N)=O)N=C1c1ncccc1O (stereo not drawn) [EM4940A, 2,4-trans-3,4-dihydro-4-hydroxy-5-(3-hydroxy-2-pyridinyl)-4-methyl-2H-pyrrole-2-carboxamide]
25 µg/mL: MIC (Escherichia coli; read-out: Minimum Inhibitory Concentration, Table III, H-59 agar, strain 10,857) | MIC (Pseudomonas aeruginosa [8]; read-out: Minimum Inhibitory Concentration, Table III, H-59 agar, strain 9545) | MIC (Pseudomonas aeruginosa [9]; read-out: Minimum Inhibitory Concentration, Table I, BA-2 agar, strain 9545)
50 µg/mL: MIC [1] | MIC (Salmonella typhimurium [2]) | MIC (Propionibacterium acnes) | MIC (Shigella sonnei; Shigella sonnei, Table I, BA-2 agar, read-out: Minimum Inhibitory Concentration) | Minimum Inhibitory Concentration (Shigella sonnei; Table II, additional tests) | MIC (Klebsiella aerogenes) | MIC (Bacteroides fragilis; Table IV, anaerobic, strain 9005, read-out: Minimum Inhibitory Concentration) | MIC (Bacteroides fragilis; Table IV, anaerobic, strain 10,277, read-out: Minimum Inhibitory Concentration) | MIC (Bacteroides fragilis; Table IV, anaerobic, strain 10,278, read-out: Minimum Inhibitory Concentration) | MIC (Bacteroides fragilis; Table IV, anaerobic, strain 10,279, read-out: Minimum Inhibitory Concentration) | MIC (Bacteroides fragilis; Table IV, anaerobic, strain 10,281, read-out: Minimum Inhibitory Concentration) | MIC (Bacteroides fragilis; Table IV, anaerobic, strain 11,086, read-out: Minimum Inhibitory Concentration) | MIC (Salmonella typhimurium [5]; Salmonella enterica, TYPHIMURIUM, read-out: Minimum Inhibitory Concentration) | Minimum Inhibitory Concentration (Salmonella typhimurium [5]; Table II, additional tests, strain 9201) | MIC (Peptococcus variabilis) | MIC [6, 12] | MIC (Klebsiella penumoniae) | MIC (Escherichia coli; read-out: Minimum Inhibitory Concentration, Table III, H-59 agar, strain 10,404) | MIC (Pseudomonas aeruginosa [8]; read-out: Minimum Inhibitory Concentration, Table III, H-59 agar, strain 9330) | MIC (Pseudomonas aeruginosa [9]; read-out: Minimum Inhibitory Concentration, Table I, BA-2 agar, strain 9330) | MIC (T. rubrum) | MIC (Serratia marcescens [11]; read-out: Minimum Inhibitory Concentration, Table II, additional tests, strain 9782)
> 200 µg/mL: MIC (Streptococcus faecalis [3]; [13]) | MIC (Pseudomonas aeruginosa [9]; read-out: Minimum Inhibitory Concentration, Table II, additional tests, strain 9330)
100.0 µg/mL: Minimum Inhibitory Concentration (Serratia marcescens [4]; Table III, H-59 agar, strain 11,111)
100 µg/mL: MIC (Enterobacter cloacae) | MIC (Bacteroides fragilis; Table IV, anaerobic, strain 11,085, read-out: Minimum Inhibitory Concentration) | MIC (Serratia marcescens [4]; Serratia marcescens, read-out: Minimum Inhibitory Concentration) | MIC [6, 13] | MIC (Pseudomonas aeruginosa [9]; read-out: Minimum Inhibitory Concentration, Table II, additional tests, strain 8754) | MIC (Acholeplasma laidlawii) | MIC (Serratia marcescens [11]; read-out: Minimum Inhibitory Concentration, Table I, BA-2 agar, strain 9782) | MIC (Serratia marcescens [11]; read-out: Minimum Inhibitory Concentration, Table II, additional tests, strain 11,111)
> 100 µg/mL: MIC (Candida albicans; Candida albicans, Medium: F4) | MIC (Candida albicans; Medium: Yeast Nitrogen Base + Glucose) | MIC (Streptococcus faecalis [3]; [12]) | MIC (Mycoplasma mycoides) | MIC (Pseudomonas aeruginosa [8]; read-out: Minimum Inhibitory Concentration, Table III, H-59 agar, strain 8754) | MIC (E. floccosum) | MIC (Pseudomonas aeruginosa [9]; read-out: Minimum Inhibitory Concentration, Table I, BA-2 agar, strain 8754) | MIC (Streptococcus faecalis [10]) | MIC (Serratia marcescens [11]; read-out: Minimum Inhibitory Concentration, Table I, BA-2 agar, strain 1111)
12.5 µg/mL: MIC (Bacteroides fragilis; read-out: Minimum Inhibitory Concentration) | MIC (Eubacterium lentum) | MIC (Clostridium histolyticum) | MIC (Clostridium sporogenes) | MIC (Clostridium septicum) | MIC [7] | MIC (Pseudomonas aeruginosa [9]; read-out: Minimum Inhibitory Concentration, Table II, additional tests, strain 9545)
